{"source": "patent US5446157A", "about": "“Boron difluoride compounds useful in photodynamic therapy and production of laser light” (priority 1993, dated 1995)", "key": {"[1]": {"test": "P-BF2 dyes dispersed in acrylic co-polymer (solid-state laser)", "source_text": "Any laser dye of the present invention may be substituted for the dye in any of the examples of that incorporated patent. The matrix generally includes solid polymeric host laser rods prepared using bulk polymerization of acrylic acid ester comonomers."}, "[2]": {"test": "Solubility/fluorescence in various solvents (Tables I, II)", "assay_type": "physicochemical", "method": "In addition, tests were conducted on the product in order to determine its solubility/fluorescence in various solvents. One property of the compositions described herein involves a variable degree of solubility/fluorescence relative to the solvents with which they are combined. Data showing a variety of different solvents combined with the product of Example I is presented below in Table I:\nAs in Example I, tests were conducted on the product in Example II in order to determine its fluorescence in various solvents. Data showing a variety of different solvents combined with the product of Example II is presented below in Table II: […]"}, "[3]": {"test_system": "metastatic breast cancer spread to the chest wall", "test": "Topical photodynamic treatment of metastatic breast cancer of the chest wall, case history", "assay_type": "in vivo, patient", "source_text": "The following case history also illustrates topical application of one of the compounds of the present invention in a person with a 12-year history of metastatic breast cancer spread to the chest wall. The patient had been treated with combinations of numerous chemotherapeutic agents and radiation therapy. Their cancer continued to progress and they received nine weekly treatments with a topical 0.3% solution of 1,3,5,7,8-pentamethylpyrromethene boron difluoride-2,6-disulfonate (PMPDS-BF2) in dimethylsulfoxide applied to the chest wall lesions followed by exposure to a General Electric sunlamp for ten minutes. The patient had initially a greater than 50% shrinkage of their tumor, which lasted over nine weeks."}, "[4]": {"test_system": "human ovarian tumor cells", "test": "Photodynamic growth inhibition of human ovarian cancer cells in vitro (soft agar)", "assay_type": "cell-based", "method": "1,3,5,7,8-pentamethylpyrromethene-boron difluoride-2,6-disodium disulfonate salt (PMPDS-BF2) and bimane diphosphonate were prepared according to previously described methods.\nHuman ovarian cells from fifteen individual patients were evaluated. All cancers were epithelial originating ovarian adenocarcinomas. Each cancer had been passed through at least one culture in RPMI-1640 (10% FBA) medium prior to use in the present study. In each case cells were harvested and washed in RPMI-1640 medium and resuspended in concentrations of 2.6×10^6 cells/ml at 5° C. The cells (2.6×10^6 cells/ml) were then incubated in a RPMI-1640 growth medium (containing 10% fetal bovine […], penicillin 100 U/ml and streptomycin 100 μg/ml) pH, 7.4 with graded doses of PMPDS-BF2 complex for 30 minutes at 37° C. in a 5% CO2 /air incubator with gentle shaking. The three concentrations of PMPDS-BF2 evaluated in this study were 0.004 μg, 0.04 μg, and 0.4 μg/ml of medium. The cell suspension was then washed with cold RPMI-1640 medium to remove extracellular PMPDS-BF2 complex, and then the cells were resuspended in fresh RPMI growth medium. Fifteen (15) ml portions of the cell suspensions (2.6×10^6 cells/ml) were irradiated in glass tubes at 37° C. in room air over a 10-20 minute period using a General Electric sun lamp. Controls were cells exposed to PMPDS-BF2 with no light exposure, cells with light exposure alone and cells with neither exposure to light nor chemicals.\nUnder identical conditions as above, bimane diphosphonate was evaluated for cytotoxic activities in the presence and absence of light. After the above incubations with PMPDS-BF2 or bimanes±light as controls, melted Bacto-agar (Difco Laboratories, Inc., Detroit, Mich.) was added to the cell suspensions to a final concentration of 0.3% agar. The mixtures were plated in 35 mm plastic tissue culture dishes on a feeder layer containing an enriched McCoy's 5A medium and 0.5% agar with the addition of 2-mercaptoethanol (5 mM) and DEAE-dextran. The seeding density for the cells in this study was kept between 1-5×10^4 cells per dish and the plates incubated at 37° C. in a CO2 incubator. Incubation was continued for another 2-3 weeks and the plates examined under an inverted phase contrast microscope and cells counted. Since these cells grow as tight aggregates in soft-agar, it was impossible to determine the number of cells in each growth. Instead, an ocular micrometer was used to count colonies 30 μm or larger in size. Plating efficiency, defined as the number of colonies formed per 100 viable cells plated, was compared between groups."}, "[5]": {"test": "Photostability under irradiation with 250 watt sun lamp", "assay_type": "physicochemical", "settings": "sun lamp, in M-1cm-1 (unit assumed)", "method": "In addition, experiments were conducted in order to determine the photostability of the product of Example I. A solution was prepared by mixing 0.1 g of the product with 50 ml of dichloromethane solvent. The solution was placed in a 100 ml round bottom flask and irradiated with light from a sun lamp (250 watts at a distance of approximately 8 inches from the flask). […] However, another solution was made by combining 0.1 g of product in 250 ml of CH3 OH and 10 ml of CH2 Cl2. Addition of the CH2 Cl2 was undertaken to obtain complete dissolution. The solution was placed in a […] and irradiated as described above. […] Thus, the use of different solvents will cause a variation in both the character and duration of fluorescence.\nIn addition, a further test was conducted in order to determine the photostability of the product. Specifically, 2.0 mg of the product in a 100 ml round bottom flask was dissolved in 50 ml of H2 O. The solution was then irradiated by light from a 250 watt sun lamp placed approximately 8 inches from the flask. UV spectral data was recorded periodically as shown below in Table III."}, "[6]": {"test": "Triplet-triplet (T--T) absorption", "assay_type": "physicochemical", "settings": "fluorescent spectral area", "method": "The T--T absorption spectrum was recorded at 77K, employing a 1×10^-4 molar solution of 2-methyltetrahydrofuran as solvent."}, "[7]": {"settings": "topical 0.3% solution in dimethylsulfoxide, sunlamp ten minutes"}}, "note": "Entries after “also recorded” stand apart in the source; their conditions may differ. Structures can show the parent of a compound that is named as a salt."}
{"smiles": "CC1=C(S(=O)(=O)O)C(C)=[N+]2C1=C(C)c1c(C)c(S(=O)(=O)O)c(C)n1[B-]2(F)F", "note": "[PMPDS-BF2, Disodium salt of 4,4-difluoro-1,3,5,7,8-pentamethyl-4-bora-3a,4a-diaza-s-indacene-2,6-disulfonic acid monohydrate]", "values": [{"measurement": "solubility in the polymer matrix", "setting": "[1]", "result": "particularly soluble"}, {"measurement": "Solubility", "setting": "[2]; (CF3)2 CHOH", "result": "Insoluble"}, {"measurement": "Solubility", "setting": "[2]; CH2 Cl2", "result": "Insoluble"}, {"measurement": "Solubility", "setting": "[2]; CH3 CO2 C2 H5", "result": "Insoluble"}, {"measurement": "Solubility", "setting": "[2]; H2 O", "result": "Soluble"}, {"measurement": "Solubility", "setting": "[2]; O(CH2 CH2)2 O", "result": "Insoluble"}, {"measurement": "shrinkage of tumor", "setting": "[3]; topical 0.3% solution in dimethylsulfoxide, nine weekly treatments, sunlamp ten minutes", "result": "greater than 50%"}, {"measurement": "duration of tumor shrinkage", "setting": "[3]; [7]", "result": "over nine"}, {"measurement": "toxic reactions", "setting": "[3]; [7]", "result": "no toxic reactions"}, {"measurement": "course after nine week shrinkage", "setting": "[3]; topical 0.3% solution, after nine weeks", "result": "the metastatic lesions again began to grow"}, {"measurement": "inhibition in cell growth", "setting": "[4]; 0.004 μg/ml plus light", "result": "40-70%"}, {"measurement": "cell morphology", "setting": "[4]; 0.004 μg/ml plus light, within 48 hours", "result": "pyknotic changes with nuclear fragmentation"}, {"measurement": "colonization / morphology of cells", "setting": "[4]; 0.04 μg/ml plus light, three days post exposure", "result": "unable to colonize, demonstrated pyknotic changes in the nucleus and cytoplasmic discoloration"}, {"measurement": "inhibition of cell growth", "setting": "[4]; 0.4 μg/ml plus light", "result": 100, "unit": "%"}, {"measurement": "cytotoxic response without light", "setting": "[4]; absence of light exposure, monohydrate", "result": "did not demonstrate significant cytotoxic responses; also recorded: did not produce cytotoxicities"}, {"measurement": "ε492 (H2O)", "setting": "[5]; 2.0 mg in 50 ml H2O, 0 hours", "result": "76,995.38"}, {"measurement": "ε492 (H2O)", "setting": "[5]; H2O, 0.5 hours", "result": "76,755.22"}, {"measurement": "ε492 (H2O)", "setting": "[5]; H2O, 1.0 hours", "result": "75,556.52"}, {"measurement": "ε492 (H2O)", "setting": "[5]; H2O, 1.5 hours", "result": "76,755.52"}, {"measurement": "ε492 (H2O)", "setting": "[5]; H2O, 2.5 hours", "result": "75,316.35"}, {"measurement": "ε492 (H2O)", "setting": "[5]; H2O, 3.5 hours", "result": "73,757.26"}, {"measurement": "ε492 (H2O)", "setting": "[5]; H2O, 6.0 hours", "result": "69,799.55"}, {"measurement": "ε492 (H2O)", "setting": "[5]; H2O, 20.0 hours", "result": "52,049.62"}, {"measurement": "ε492 (H2O)", "setting": "[5]; H2O, 21.5 hours", "result": "51,569.90"}, {"measurement": "ε492 (H2O)", "setting": "[5]; H2O, 23.5 hours", "result": "46,173.05"}, {"measurement": "ε492 (H2O)", "setting": "[5]; H2O, 25.5 hours", "result": "45,573.40"}, {"measurement": "ε492 (H2O)", "setting": "[5]; H2O, 28.0 hours", "result": "41,016.06"}, {"measurement": "ε492 (H2O)", "setting": "[5]; H2O, 30.5 hours", "result": "37,178.46"}, {"measurement": "ε492 (H2O)", "setting": "[5]; H2O, 44.0 hours", "result": "20,388.19"}, {"measurement": "ε492 (H2O)", "setting": "[5]; H2O, 50.0 hours", "result": "13,192.355"}, {"measurement": "ε492 (H2O)", "setting": "[5]; H2O, 52.5 hours", "result": 599.653}, {"measurement": "T--T absorption", "setting": "[6]", "result": "barely detectable"}, {"measurement": "T--T absorption ε.tau.", "setting": "[6]", "result": "~ 3×10^-3"}]}
